The values below come from US11696903B2, “Compounds and methods for scavenging dicarbonyl electrophiles” (VANDERBILT UNIVERSITY, priority 2019, dated 2023).

Entries after “also recorded” stand apart in the source; their conditions may differ.

In data set [1] the test system is COX-2 activity. Put plainly: PGE2 production in A549 cell media (GC/MS) as measure of COX-2 activity. The format is cell-based, human. As for the experimental part: (A). Scavengers were screened in RAW264.7 cells for the ability to decrease LG adduct formation on histones. Scavengers used were glucosamine (GA), 3-methoxysalicylamine (3-MoSA), pentylpyridoxamine (PPM), and 5-ethylsalicylamine (EtSA). Cells were stimulated to express COX-2, pretreated 45 min. with 500 μM scavenger or vehicle (H2O), and given 20 μM AA for 1 h before lysing and extracting histones. Histone proteins were analyzed by LC/ESI/MS/MS for LG-lysyl lactam adduct, n=2. (B) Stimulated A549 cells were pretreated with 30, 300, or 1000 μM EtSA prior to 1 h with 20 μM AA, and histones analyzed for LG-lysyl adduct. *, p<0.05 by one-way ANOVA followed by Dunnett's multiple comparisons post-test (n=3-5). (C). A549 cells were stimulated, pretreated 45 min. with 1000 μM EtSA or H2O vehicle, and given 20 μM AA for 1 h. Media was analyzed by GC/MS for PGE2 (n=3). There was no effect on PGE2 production at lower doses of EtSA (data not shown).
To stimulate COX-2 expression, A549 or RAW264.7 cells were treated overnight with 5 ng/mL IL-1B (A549) or 10 μg/mL LPS and 10 U/mL IFNγ (RAW264.7) in serum-free medium. When indicated, cells were pretreated with indomethacin, aldehyde scavengers (glucosamine, 3-MoSA, PPM or EtSA), or vehicle (ethanol for indomethacin, H2O for scavengers) for 45 min, and then given 20 μM arachidonic acid (AA) or DMSO vehicle for 1 h before lysing. […]

A short description of data set [2]: Tolerability of EtHOBA in control mice (body weight, organs). The format is in vivo. Here is the method: FIGS. 3A and 3B show data from C57BL/6 mice were treated or not with various concentrations of EtHOBA. (A) Body weight was assessed every day. (B) After 6 days, mice were euthanized and EtHOBA was measured in the colon. n=5 mice/group.
The present inventors analyzed the effect of various concentrations of EtHOBA and its bioavailability in control mice. […] After 6 days of treatment, EtHOBA concentrations in the colon were analyzed using liquid chromatography electrospray ionization tandem mass spectrometry (LC/EST/MS/MS).

Data set [3] deals with H. pylori. Put plainly: Hp gastric colonization quantified by culture. The note with it: INS-GAS mice, EtSA treatment. It counts as in vivo, Helicobacter pylori. As for the experimental part:
(§1) As discussed further in the Examples, the human gastric epithelial cell line AGS was infected with Hp PMSS1±10 mM EtSA. FVB/N insulin-gastrin (INS-GAS) mice and Mongolian gerbils were infected for 8 wk with Hp PMSS1 and 7.13, respectively; EtSA (0.75% in water) was given to animals beginning one wk post-infection. Lys-LG adducts, a marker of electrophile reactions, and EtSA were quantified by LC/EST/MS/MS. Histology was analyzed on H&E staining. DNA damage was evaluated by pH2AX staining. Hp colonization was quantified by culture. Mucosal immune responses were determined by RNA profiling and by Luminex assay. Mice were imaged using PET/CT with ^18F-FDG (inflammation marker) and ^18F—NaF (tumor marker).
(§2) The effect of a scavenger of levuglandins and other dicarbonyls was investigated in transgenic INS-GAS mice, which have high circulating gastrin levels and develop atrophic gastritis, and dysplasia and carcinoma with H. pylori infection. Mice were infected with H. pylori, and then EtSA was administered in drinking water, starting 7 days after infection. After 8 weeks, EtSA levels were measured in the gastric tissues of uninfected and infected mice receiving this compound (FIG. 16A). […] There was no dysplasia or carcinoma in uninfected mice (FIG. 16D).

In data set [4] the test system is INS-GAS mice infected with H. pylori. Put plainly: H. pylori-induced gastric dysplasia and carcinoma in INS-GAS mice. The format is in vivo. Here is the method:
FIGS. 16A, 16B, 16C, 16D, 16E, and 16F show INS-GAS mice (8 per group) were infected or not with H. pylori strain PMS for 8 weeks and then treated with EtSA (7.5 mg/ml) one week after infection. (A) EtSA concentration in gastric tissues; **P<0.01, ****P<0.0001 vs. mice without EtSA. (B) Frequency of diagnoses. IMC, intramucosal carcinoma; LGD, low grade dysplasia; ND, no dysplasia. (C) Quantification of extent of dysplasia and cancer as a percentage of tissue sections. (D) H&E staining of INS-GAS mouse stomach tissues, showing carcinoma in an infected mouse; scale bar, 50 μm. In B and C, *P<0.05, **P<0.01 vs. infected mice.
as §1, §2

Where [5] appears, read: H. pylori-infected INS-GAS mice treated with EtSA, 8 weeks, 37.5% without EtSA.

As to `CCc1ccc(O)c(CN)c1` [EtHOBA, 5-ethyl-2-hydroxybenzylamine], the PGE2 production result in data set [1] (A549, highest concentration tested (1000 μM EtSA)) is on record as “without affecting”. For the same compound, the PGE2 production result in data set [1] (A549, lower doses of EtSA (data not shown)) is “no effect”. Also, in data set [2] (3.7 mg/ml EtHOBA, control mice, 6 days), the Body weight entry was “lost weight on day 1, but did not lose additional weight and did not die”. Further, the Body weight result in data set [2] (0.37-1.5 mg/ml EtHOBA, compared to untreated mice) is on record as “no loss of body weight”. Further, in data set [2] (1.5 or 3.7 mg/ml EtHOBA), the colon weight/length result is “no change in colon weight/length” and the “macroscopic evidence of organ damage” value is “no macroscopic evidence of organ damage”. Besides, the Hp colonization entry in data set [3] is “not reduced; also recorded: not affected”. In addition, in data set [4] (setting [5]), the development of carcinoma was 0% and the development of dysplasia was determined as 14.3%. Moreover, the “extent of dysplasia and carcinoma” value in data set [4] (Hp-infected INS-GAS mice treated with EtSA, percentage of gastric mucosa) was “significantly attenuated; also recorded: decreases”. Moreover, the “frequency of intramucosal carcinoma” value in data set [4] (Hp-infected INS-GAS mice treated with EtSA, 69% without EtSA, p<0.05) came out at 28%.
